Consider four molecules from article PMC9508125, “The evolutionary advantage of an aromatic clamp in plant family 3 glycoside exo-hydrolases” (Nature Communications, 2022).

Experiment [1] concerns the target HvExoI. Also noted: method as in PMID 8617814. Particulars: transition state analogue; previous observations; cited from earlier work.
Experiment [2] relates to Recombinant HvExoI W286Y. The class given is biochemical, Hordeum vulgare. Particulars: calculated according to ∆G = -RT ln [1/Ki]. The procedure: (§1) Dependency of activities of WT and mutant HvExoI on pH (McIlvaine buffers in the pH range of 3.5–8.5 at 30 °C) and temperature (100 mM sodium acetate buffer, pH 5.25, temperature range 0–80 °C, 15 min incubations) were determined using 0.2% (w/v) 4NP-Glc[21],[59]. Relative rates of hydrolysis of β-linked poly-, oligosaccharides, and aryl-glucosides were determined using near-homogenous HvExoI at 50 pmoles. […] Kinetic parameters were calculated from the analyses of Michaelis-Menten plots with Grafit 7.0.3[62] and processed by a proportional weighted fit, using nonlinear regression. The relative rates of hydrolysis, kinetic, and inhibition data were rounded to one or two decimal points (Supplementary Tables 2–4).

Experiment [3] deals with WT HvExoI (Hordeum vulgare, UniProt Q9XEI3). Briefly: Inhibition by thio-analogues using the 4NP-Glc substrate. The experiment is classed as biochemical. Conditions: for ΔG: calculated according to ∆G = -RT ln [1/Ki]; for type of inhibition: WT HvExoI. The procedure: as §1
Sequence of WT HvExoI (Q9XEI3 entry or part of it): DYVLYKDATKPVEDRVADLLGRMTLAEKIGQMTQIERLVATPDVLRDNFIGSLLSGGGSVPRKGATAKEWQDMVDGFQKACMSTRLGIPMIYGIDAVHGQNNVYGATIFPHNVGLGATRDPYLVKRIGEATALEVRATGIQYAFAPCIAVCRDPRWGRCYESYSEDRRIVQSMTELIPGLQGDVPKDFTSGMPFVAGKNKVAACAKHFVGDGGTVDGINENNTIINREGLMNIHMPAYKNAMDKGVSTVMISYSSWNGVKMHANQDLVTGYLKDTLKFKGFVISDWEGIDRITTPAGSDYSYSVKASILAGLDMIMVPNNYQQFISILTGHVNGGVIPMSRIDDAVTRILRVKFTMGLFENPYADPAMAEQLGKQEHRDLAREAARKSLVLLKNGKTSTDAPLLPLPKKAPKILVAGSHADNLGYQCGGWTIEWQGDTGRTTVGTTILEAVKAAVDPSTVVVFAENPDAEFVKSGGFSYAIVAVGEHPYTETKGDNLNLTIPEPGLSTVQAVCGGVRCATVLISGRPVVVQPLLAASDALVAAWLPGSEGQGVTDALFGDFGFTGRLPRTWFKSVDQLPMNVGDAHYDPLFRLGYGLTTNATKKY
The target of experiment [4] is Native HvExoI (Hordeum vulgare, UniProt Q9XEI3). The description is as above. The class given is biochemical. Conditions: for pKi: apparent inhibition constant, 4NP-Glc substrate; for ΔG: calculated according to ∆G = -RT ln [1/Ki]. The procedure: as §1
Sequence of Native HvExoI (Q9XEI3 entry or part of it): as above
In experiment [5] the test system is Recombinant HvExoI W434H. The description is as above. The class given is biochemical, Hordeum vulgare. Conditions: for ΔG: calculated according to ∆G = -RT ln [1/Ki]. The method, then:
as §1

Experiment [6] deals with Recombinant HvExoI W286F. Described as above. The class given is biochemical, Hordeum vulgare. Conditions: calculated according to ∆G = -RT ln [1/Ki]. The method, then:
as §1

For experiment [7], the system named is Recombinant HvExoI W434Y. Described as above. The experiment is classed as biochemical, Hordeum vulgare. Particulars: calculated according to ∆G = -RT ln [1/Ki]. The procedure: as §1
Experiment [8] relates to Recombinant HvExoI W434F. The experiment is described as above. Particulars: for ΔG: calculated according to ∆G = -RT ln [1/Ki]. The experiment is classed as biochemical, Hordeum vulgare. The method, then:
as §1

For experiment [9], the system named is Recombinant HvExoI W434A. The description is as above. The class given is biochemical, Hordeum vulgare. Particulars: calculated according to ∆G = -RT ln [1/Ki]. The method, then:
as §1

pKi: −log10 of the molar value.

Usually pKi stands for the Ki on a negative log10 scale, so that one unit is a factor of ten. Consider `O=C1O[C@H](CO)[C@@H](O)[C@H](O)[C@H]1O` [D-glucono−1,5-lactone], for which the negative-log Ki (pKi) in [1] was 5.68.
Take `CO[C@@H]1O[C@H](CS[C@@H]2O[C@H](CO)[C@@H](O)[C@H](O)[C@H]2O)[C@@H](O)[C@H](O)[C@H]1O` [G6SG-OMe, methyl 6-thio-β-gentiobioside]: the ΔG in experiment [2] is -4.88 kcal/mol; in [3] (Recombinant WT), -5.09 kcal/mol; in experiment [4], -5.54 kcal/mol; in [5], -4.3 kcal/mol; in experiment [6], -5.14 kcal/mol; in [7] it was -4.88 kcal/mol. The ΔG in experiment [8] was -4.47 kcal/mol. Also, the type of inhibition result in experiment [3] is reported as “competitive inhibition”. For the same molecule, the pKi in experiment [4] is 4.00. Further, the entries for the “fold higher Ki constant value compared to WT” value in experiment [5] and in [8] were 8 fold and 6 fold, respectively.
On to `CO[C@@H]1O[C@H](CO)[C@@H](S[C@@H]2O[C@H](CO)[C@@H](O)[C@H](O)[C@H]2O)[C@H](O)[C@H]1O` [G4SG-OMe, methyl 4-thio-β-cellobioside], for which the ΔG was -3.68 kcal/mol in experiment [2]; -4.16 kcal/mol in experiment [3] (Recombinant WT); -4.16 kcal/mol in experiment [4]; -3.85 kcal/mol in [5]; -3.75 kcal/mol in experiment [6]; -3.3 kcal/mol in experiment [7]. Moreover, the figures for the ΔG in [8] and in experiment [9] were -3.42 kcal/mol and -3.68 kcal/mol, respectively. Besides, the pKi in experiment [3] (Recombinant WT, apparent inhibition constant, 4NP-Glc substrate) was 3.00; in experiment [4], 3.00. Moreover, in experiment [3], the type of inhibition result is on record as “competitive inhibition”.
“4-nitrophenyl 3-thio-laminaribioside [4NP-G3SG]”: the ΔG in experiment [2] was -3.75 kcal/mol; in experiment [3] (Recombinant WT), -4.37 kcal/mol; in experiment [4], -4.37 kcal/mol; in experiment [5], -3.61 kcal/mol; in [6], -4.37 kcal/mol; in [7], -3.75 kcal/mol. In addition, the ΔG in experiment [8] is -4.11 kcal/mol; in experiment [9], -3.92 kcal/mol. The type of inhibition entry in experiment [3] is “competitive inhibition”.
